Results from PMC7582705, “Structure-Based Discovery of Novel Chemical Classes of Autotaxin Inhibitors” (International Journal of Molecular Sciences, 2020).
Like-named read-outs stand apart in the source and are kept apart here. Values belong to the compound of their own block, whether it stands above or below them.

Legend:
ATX [1] = molecular target: T1, ATX (Homo sapiens, UniProt Q13822); assay: IC50 Eleanna (Table S2, method not described); assay type: biochemical
mouse ATX [2] = molecular target: T2, mouse ATX (Mus musculus, UniProt Q9R1E6); assay: Mode of inhibition, modified Amplex assay, Lineweaver-Burk plots; assay type: biochemical; settings: various LPC and inhibitor concentrations
T2 construct: purchased Sino Biological
Method: Lastly, to get insight into the mode of inhibition of the new ATX inhibitors developed in the present study, the Lineweaver–Burk plots were performed.
To determine the mode of inhibition of ATX by each inhibitor, a modified Amplex assay was employed. […] Mouse ATX from Sino Biological was used in all mode of inhibition assays. Thereafter, the velocity (V) of the reaction was calculated and the reciprocal of velocity (1/V) was plotted against the reciprocal of substrate concentration (1/S) in Lineweaver–Burk graphs using GraphPad Software (GraphPad Software, San Diego, CA, USA).

mouse ATX [3] = molecular target: T2, mouse ATX; assay: Amplex Red Lyso-phospholipase D assay, mouse ATX; assay type: biochemical
Method: (§1) All compounds proposed were assessed for their ATX inhibitory activity in vitro using the Amplex Red assay. The Amplex Red Lyso-phospholipase D assay is a fluorometry-based assay providing a sensitive method for measuring Lyso-phospholipase D (ATX) activity in vitro. In this enzyme-coupled assay, ATX activity is monitored indirectly using 10-acetyl-3,7-dihydrophenoxazine (Amplex Red reagent), a sensitive fluorogenic probe for H2O2. ATX initially cleaves the Lysophosphatidylcholine (LPC) substrate to yield choline and Lysophosphatidic acid (LPA), while choline gets subsequently oxidized by choline oxidase to betaine and H2O2. Lastly, H2O2, in the presence of horseradish peroxidase (HRP), reacts with Amplex Red reagent in a 1:1 stoichiometry to generate the highly fluorescent product resorufin.
(§2) The inhibition assay was performed as previously described with some modifications in order to accommodate the newly-discovered lag phase in ATX kinetics. To this end, and in order to provide adequate time to the hydrolysis of LPC by ATX, we added a 30min incubation period between ATX, inhibitors and LPC. Briefly, 2 μL of different concentrations of inhibitors diluted in DMSO (Sigma-Aldrich, St. Louis, MO, USA) were incubated with 50 µL of ATX 8 nM (human or mouse ATX from Sino Biological), and 48 µL reaction buffer (50 mM Tris-Cl pH 8.0 from Thermo Fisher Scientific, Waltham, MA, USA and 5 mM CaCl2 from Honeywell-Fluka, Charlotte, NC, USA) in a black 96-well microplate for 15 min at 37 °C. Thence, another 50 µL of reaction buffer with 200 μM LPC substrate 16:0 (Avanti Polar Lipids Inc, Alabaster, AL, USA) (final concentrations of LPC and ATX are 50 µM and 2 nM, respectively) was added to the reaction mixture and incubated for 30 min at 37 °C in order for ATX to convert LPC to LPA and choline. Finally, 50 µL of working solution containing 200 μM Amplex Red (Invitrogen, Carlsbad, CA, USA), 4 U/mL HRP (Sigma-Aldrich, St. Louis, MO, USA), 0.4 U/mL choline oxidase (Sigma-Aldrich, St. Louis, MO, USA) in 50 mM Tris-HCl pH 8.0 and 5 mM CaCl2 was added to measure the produced choline. The reaction was monitored at 37 °C in a fluorescence plate reader using excitation at 530 nm and reading at 590 nm, every 5 min for 30 min. The velocity of the reaction and the remaining activity of ATX were calculated at the linear phase of the reaction and dose-response inhibition graphs were plotted with GraphPad Software (GraphPad Software, San Diego, CA, USA). […] In order to evaluate a possible effect of the compounds on the second (choline oxidase) and third (HRP) enzymes of the Amplex Red assay, we also performed the assay in the absence of ATX but in the presence of the compounds. Instead of ATX, we added choline chloride at a final concentration of 2 µM so as the second and third steps of the assay could proceed normally.

ATX [4] = molecular target: T1, ATX; assay: Amplex Red Lyso-phospholipase D assay, human ATX; assay type: biochemical; set-up: purchased Sino Biological; settings: for inhibition at 30 µM: read-out: %inhibition at 30uM
Method: as §1
as §2, with “([…])” for “(final concentrations of LPC and ATX are 50 µM and 2 nM, respectively)”

Solubility (Table S1) = settings: YES/NO
phosphodiesterase (PDE) = assay: Phosphodiesterase (PDE) colorimetric assay, 3',5'-cAMP and 3',5'-cGMP as substrates; assay type: biochemical; settings: for activity against PDE: in words
Source text: This colorimetric assay kit uses 3′,5′-cAMP and 3′,5′-cGMP as substrates, and it is useful for the screening of inhibitors of nucleotide phosphodiesterase activity.

[5] = Table S2, read-out: IC50 Eleanna
[6] = recombinant mouse ATX 2 nM, LPC 16:0 substrate, Amplex Red, read-out: IC50 mATX
[7] = recombinant human ATX 2 nM, LPC 16:0 substrate, Amplex Red, read-out: IC50 hATX
[8] = in vitro IC50 (hATX 1nM), Table S2, hATX 1nM
[9] = in vitro IC50 (Sino hATX 2nM), Table S2, Sino hATX 2nM
[10] = IC50 hATX, recombinant human ATX 2 nM, LPC 16:0 substrate, Amplex Red
[11] = in vitro IC50 (mATX 2nM), Table S2, mATX 2nM

IC50 (ATX [1]; [5]): 2.3 µM
Mode of Inhibition (mouse ATX [2]): uncompetitive
IC50 (mouse ATX [3]; [6]): 4 µM
inhibition at 30 µM (ATX [4]; Table S2, at 30uM): 70.6%
IC50 (ATX [4]; [7]): 13.6 µM
Compound: Cc1[nH]c2ccccc2c1C1=CCN(S(=O)(=O)c2cccc3nsnc23)CC1 [SC-41, 4-{[4-(2-Methyl-1H-indol-3-yl)-3,6-dihydropyridin-1(2H)-yl]sulfonyl}-2,1,3-benzothiadiazole]

IC50 (ATX [1]; [5]): 0.6 µM
IC50 (mouse ATX [3]; [6]): 67 µM
inhibition at 30 µM (ATX [4]; Table S2, at 30uM): 13.2%
IC50 (ATX [4]; [8]): 43 µM
IC50 (ATX [4]; [7]): 79 µM
Solubility (Solubility (Table S1)): YES
Compound: O=C1Nc2ccccc2/C1=C/c1cc2ccccc2n1S(=O)(=O)c1ccccc1 [SCR01013, (3Z)-3-[[1-(Benzenesulfonyl)indol-2-yl]methylidene]-1H-indol-2-one]

IC50 (phosphodiesterase (PDE)): 0.9 µM
activity against PDE (phosphodiesterase (PDE)): outstanding activity
IC50 (ATX [1]; [5]): 2 µM
IC50 (mouse ATX [3]; [6]): 3 µM
inhibition at 30 µM (ATX [4]; Table S2, at 30uM): 84.2%
IC50 (ATX [4]; [9]): 1.85 µM
IC50 (ATX [4]; [7]): 1.8 µM
Compound: Cc1cccc(C)c1NC(=O)CSc1nc2ccccc2c(=O)n1CCc1cccs1 [KM-28, N-(2,6-dimethylphenyl)-2-[4-oxo-3-(2-thiophen-2-ylethyl)quinazolin-2-yl]sulfanylacetamide]

IC50 (ATX [4]; [7]): > 100 µM
Solubility (Solubility (Table S1)): YES
Compound: FC(F)(F)c1ccc2c(c1)nc(SCc1ccccc1)n2CCc1ccccc1 [RDR02791, 2-benzylsulfanyl-1-(2-phenylethyl)-5-(trifluoromethyl)benzimidazole]

Compound: O=C(Nc1c2c(nn1-c1ccc([N+](=O)[O-])cc1)CSC2)c1cccc2ccccc12 [SC-49, N-[2-(4-nitrophenyl)-4,6-dihydrothieno[3,4-c]pyrazol-3-yl]naphthalene-1-carboxamide]
activity against PDE (phosphodiesterase (PDE)): outstanding activity
IC50 (ATX [1]): 0.2 µM
IC50 (mouse ATX [3]): 9.7 µM
IC50 (ATX [4]; [10]): 10.2 µM
IC50 (ATX [4]; [9]): 10.2 µM
IC50 (ATX [4]; [8]): 9 µM
inhibition at 30 µM (ATX [4]): 65.8%

IC50 (ATX [4]; [7]): > 100 µM
Solubility (Solubility (Table S1)): YES
Compound: O=c1[nH]nc(-c2ccc(F)cc2)cc1Cc1cn(Cc2ccccc2)c2ccc([N+](=O)[O-])cc12 [HTS01403, 4-[(1-benzyl-5-nitro-1H-indol-3-yl)methyl]-6-(4-fluorophenyl)pyridazin-3(2H)-one]

IC50 (ATX [4]; [7]): > 100 µM
Solubility (Solubility (Table S1)): YES
Compound: COc1ccc(C2C(C(=O)O)c3ccccc3C(=O)N2Cc2ccc(F)cc2)cc1 (centres unmarked) [PD00668, 2-(4-fluorobenzyl)-3-(4-methoxyphenyl)-1-oxo-1,2,3,4-tetrahydroisoquinoline-4-carboxylic acid]

IC50 (ATX [4]; [7]): > 100 µM
Solubility (Solubility (Table S1)): YES
Compound: Cc1cc(OC(=O)c2c(-c3ccccc3)noc2C)c2cc(F)ccc2n1 [BTB01297, (6-fluoro-2-methylquinolin-4-yl) 5-methyl-3-phenyl-1,2-oxazole-4-carboxylate]

IC50 (mouse ATX [3]; [11]): 57 µM
inhibition at 30 µM (ATX [4]; Table S2, at 30uM): 17%
IC50 (ATX [4]; [8]): 54 µM
Compound: CCOC(=O)c1c(CN2CCCC2)n(-c2ccccc2)c2cc(Br)c(OC)cc12 [KM-3, ethyl 6-bromo-5-methoxy-1-phenyl-2-(pyrrolidin-1-ylmethyl)indole-3-carboxylate]

IC50 (ATX [4]; [7]): > 100 µM
Solubility (Solubility (Table S1)): YES
Compound: Cc1ccc(S(=O)(=O)CCSc2n[nH]c(=O)n2-c2ccc(OCc3ccccc3)cc2)cc1 [HTS02873, 4-[4-(benzyloxy)phenyl]-5-({2-[(4-methylphenyl)sulfonyl]ethyl}sulfanyl)-2,4-dihydro-3H-1,2,4-triazol-3-one]

IC50 (ATX [4]; [7]): > 100 µM
Solubility (Solubility (Table S1)): YES
Compound: Nc1ncnc2c1ncn2CCc1ccccc1 [HTS11215, 9-phenethyl-9H-purin-6-amine]

IC50 (ATX [4]; [7]): > 100 µM
Solubility (Solubility (Table S1)): YES
Compound: CC(C)(C)c1ccc(-c2nnc(SCC(=O)c3ccccc3)n2-c2ccc3c(c2)OCO3)cc1 [HTS02043, 2-[[4-(1,3-benzodioxol-5-yl)-5-(4-tert-butylphenyl)-1,2,4-triazol-3-yl]sulfanyl]-1-phenylethanone]

IC50 (ATX [4]; [7]): > 100 µM
Solubility (Solubility (Table S1)): YES
Compound: O=C(c1cccnc1Oc1ccc(Cl)cc1)N1CCN(C2c3ccccc3-c3ccccc32)CC1 [HTS07938, [2-(4-chlorophenoxy)pyridin-3-yl]-[4-(9H-fluoren-9-yl)piperazin-1-yl],methanone]

IC50 (ATX [4]; [7]): > 100 µM
Solubility (Solubility (Table S1)): YES
Compound: COc1ccc(-n2c(-c3ccc(Cl)cc3)cc(-c3cccs3)c2-c2ccccc2)cc1 [RG00099, 5-(4-chlorophenyl)-1-(4-methoxyphenyl)-2-phenyl-3-(2-thienyl)-1H-pyrrole]

IC50 (ATX [4]; [7]): > 100 µM
Solubility (Solubility (Table S1)): YES
Compound: N#Cc1ccc(-c2c(NC(=O)NS(=O)(=O)c3ccccc3Cl)oc(-c3ccco3)c2C#N)cc1 [CD09529, 2-[({[(2-chlorophenyl)sulphonyl]amino}carbonyl)amino]-4-cyano-3-(4-cyanophenyl)-5-(2-furyl)furan]

IC50 (ATX [4]; [7]): > 100 µM
Solubility (Solubility (Table S1)): YES
Compound: Cc1c(S(=O)(=O)N2CCN(C3c4ccccc4-c4ccccc43)CC2)sc2ccc(Cl)cc12 [HTS08762, 1-[(5-chloro-3-methyl-1-benzothiophen-2-yl)sulfonyl]-4-(9H-fluoren-9-yl)piperazine]

Compound: O=C1C2=C([CH]C=C[CH]2)C(=O)N1CN(Cc1csc2ccccc12)CN1C(=O)c2ccccc2C1=O [PD00399]
IC50 (ATX [4]; [10]): > 100 µM
Solubility (Solubility (Table S1)): YES

IC50 (ATX [1]; [5]): 0.3 µM
IC50 (mouse ATX [3]; [11]): 60 µM
inhibition at 30 µM (ATX [4]; Table S2, at 30uM): 33.5%
IC50 (ATX [4]; [8]): 38 µM
Compound: COc1ccccc1NC(=S)N1CCn2cccc2C1c1ccc(OC)c(OC)c1 (centres unmarked) [KM-41, 1-(3,4-dimethoxyphenyl)-N-(2-methoxyphenyl)-3,4-dihydro-1H-pyrrolo[1,2-a]pyrazine-2-carbothioamide]
